The test system of assay [1] is C57BL/6J mouse with induced non-alcoholic steatohepatitis. As to the kind of experiment: AST and ALT measurement in blood, C57BL/6J DIO-NASH mouse model. The following applies: C57BL/6J DIO-NASH_Compd1, compound in special diet for eight weeks, plasma, vs. DIO-NASH; FIG. 15. The assay is classed as in vivo. As to the method: (§1) A six-week-old male C57BL/6J mouse was fed with a special diet comprising high fat, high fructose, and high cholesterol for at least 26 weeks, and thus was induced to develop non-alcoholic steatohepatitis. It was confirmed that fatty liver and inflammatory fibrosis are induced through a biopsy of liver tissues three weeks before drug supply, and mice were evenly distributed into each group based on the area of collagen stained in the liver tissues. A feed was prepared by mixing the compounds according to the present invention in a special diet and supplied for additional eight weeks. According to the diet supplied to the mice, each of the groups was classified as a control group fed with a normal diet (Normal), a positive control group in which mice with induced non-alcoholic steatohepatitis due to the special diet were not supplied with a drug (DIO-NASH), and a group in which mice with induced non-alcoholic steatohepatitis were supplied with the compound 1 in an amount of 30 mg/kg/day (L) and […] (H) (Cmpd1 (L) and Cmpd1 (H), respectively).
Each of the mouse groups was subjected to autopsy, after which plasma was separated therefrom, so as to quantity aspartate aminotransferase (AST) and alanine aminotransferase (ALT) by using an automatic blood analyzer (Konelab 20i).

The test system is the same in assay [2]. Nature of the assay: Evaluation of fibrosis (Sirius stain, type I collagen immunostaining), C57BL/6J DIO-NASH mouse model. The settings on record: C57BL/6J DIO-NASH_Compd1, compound in special diet for eight weeks, vs. DIO-NASH; FIGS. 13 and 14. Format: in vivo. As for the experimental part:
as §1
Then, for the evaluation of fibrosis, the fibers of the liver tissues were specifically stained with Sirius Res stain in the mice of each group, and a content of type I collagen in the liver tissues was measured by an imaging analysis method after immunostaining, so that the results thereof are shown in FIGS. 13 and 14.

The test system of assay [3] is differentiated macrophages (THP-1). As to the kind of experiment: Effect on activation of differentiated macrophages by LPS (IL-1β secretion, ELISA). Format: cell-based, human. The settings on record: differentiated macrophages treated with compound for 48 hours, then LPS; FIG. 9. As for the experimental part: (§2) Then, THP-1 monocytes were treated with PMA (50 ng/ml) for 48 hours to be differentiate into macrophages, while the compound 1 was co-treated, then replaced with serum-free medium, and then treated with lipopolysaccharides (LPS, 0.5 ng/ml) for four hours so as to quantity interleukin-1β (IL-1β, R&D Systems, DY201) secreted into the medium by using a commercialized ELISKA kit and evaluate an effect on the differentiation of monocytes, so that the results thereof are shown in FIG. 8.
In addition, after treating the differentiated macrophages with the compound 1 for 48 hours, the secreted IL-1β was quantified by the same method as above with regard to the activation of immune cells by LPS, so as to evaluate an effect on the activation of differentiated macrophages.

The test system of another assay is human monocytes (THP-1). Nature of the assay: Effect on differentiation of human monocytes into macrophages (IL-1β secretion, ELISA). Format: cell-based. The settings on record: THP-1 co-treated with compound during PMA (50 ng/ml) differentiation for 48 hours, then LPS (0.5 ng/ml) for four hours; FIG. 8. As for the experimental part: as §2
Assay [4] relates to ob/ob mouse with induced non-alcoholic steatohepatitis. As to the kind of experiment: Expression of genes associated with inflammation and fibrosis in liver tissues (real-time PCR), ob/ob NASH mouse model. The following applies: 100 mg/kg/day mixed in special diet for 10 weeks, FIG. 6. The assay is classed as in vivo. As for the experimental part:
(§3) A six-week-old male ob/ob mouse with leptin deficiency was fed with a special diet containing high fat, high fructose, and high cholesterol for 10 weeks, and thus was induced to develop non-alcoholic steatohepatitis. A mixed form of diet was prepared so that a daily dose of (3-(4-(3-(1-(5-ethylpyrimidin-2-yl)piperidin-4-yl)propoxy)-2,6-difluorophenyl)-5-isopropyl-1,2,4-oxadiazole (hereinafter, “compound 1”) reaches 100 mg/kg/day in the compound represented by the chemical formula 1, and supplied to the mouse from a time point of starting the supply of the special diet for 10 weeks.
To measure an expression level of inflammation-related genes and fibrosis-related genes in liver tissues, Trizol® (Invitrogen) was added to the liver tissues collected from the mouse model, after which a total RNA was extracted from the tissues according to the method provided by the manufacturer, and then cDNA was synthesized by using a reverse transcriptase. Then, a real-time polymerase chain reaction was performed in LightCycler®480 Instrument II (RocheLifeScience) equipment by using a reagent of SYBR Green I Master Mix (Roche, 04707516001), and the results thereof are shown in FIG. 6.
Background: In qPCR the cycle at which signal appears reflects the starting amount.

Assay [5] shares this test system. Nature of the assay: AST and ALT measurement in blood, ob/ob NASH mouse model. Format: in vivo. The following applies: 100 mg/kg/day mixed in special diet for 10 weeks, plasma, vs. Ob-NASH, FIG. 4. As for the experimental part: as §3
The mouse model with induced non-alcoholic steatohepatitis was subjected to autopsy, after which plasma was separated therefrom, so as to quantify aspartate aminotransferase (AST) and alanine aminotransferase (ALT) by using an automatic blood analyzer (Konelab 20i), and the results thereof are shown in FIG. 4.

Assay [6] has the same test system. Nature of the assay: Histological examination of liver (HE, Masson's Trichrome / Sirius stain) in ob/ob mouse model with induced non-alcoholic steatohepatitis. The settings on record: 100 mg/kg/day mixed in special diet for 10 weeks, vs. Ob-NASH. The assay is classed as in vivo. As for the experimental part: as §3
For a histological examination, the prepared mouse model with induced non-alcoholic steatohepatitis was subjected to autopsy to fix an isolated liver tissue in 10% formalin and prepare a paraffin block, thereby obtaining a 2 μm-thick tissue section. To confirm infiltration of inflammatory cells, Hematoxylin and Eosin (HE) stain was performed using an automatic staining machine (Autostainner XL, Leica), and the results thereof are shown in FIGS. 1 and 2.
Then, for evaluation of fibrosis, fibers in liver tissue were specifically stained by using Masson's Trichrome stain or Sirius Res stain, and the results thereof are shown in FIGS. 2 and 3.

The test system of assay [7] is C57BL/6J mouse with induced non-alcoholic steatohepatitis. Nature of the assay: Change in gene expression in liver tissues (RNAseq), C57BL/6J DIO-NASH mouse model. Format: in vivo. The settings on record: C57BL/6J DIO-NASH_Compd1, eight weeks after drug administration, vs. DIO-NASH, FIG. 16. As to the method:
as §1
To analyze a change in total gene expression in liver tissues isolated from the above mouse model in eight weeks after drug administration, the isolated RNA fraction was used to generate a library by using NeoPrep (Illumina), and subjected to RNAseq profiling through NexSeq 500 (Illumina), after which bioinformatics analysis was performed and changes in major gene groups were classified for each function, so that the results thereof are shown in FIG. 16.

Assay [8] concerns ob/ob mouse with induced non-alcoholic steatohepatitis. As to the kind of experiment: Concentration of proteins associated with inflammation and fibrosis in liver tissues (ELISA), ob/ob NASH mouse model. Format: in vivo. The following applies: 100 mg/kg/day mixed in special diet for 10 weeks, vs. Ob-NASH, FIG. 5. As for the experimental part:
as §3
To evaluate an effect on the expression of inflammation-related genes and fibrosis-related proteins in liver tissues, the liver tissues obtained from the mouse model were put into RIPA buffer (Cell Signaling) and pulverized with TissueLyser II™ (Quiagen), after which a total protein concentration was quantified with Pierce BCA Protein Assay Kit (Thermo Fisher Scientific) and a protein concentration of Mouse Ccl2 (=Mcp1; R&D Systems, MJE00) and Timp1 (R&D Systems, MTM100) in the liver tissues was quantified by using a commercially available ELISA kit, so that the results thereof are shown in FIG. 5.
(In general: An ELISA detects its analyte on a solid surface through an enzyme-linked reagent.)

Assay [9] relates to C57BL/6J mouse with induced non-alcoholic steatohepatitis. As to the kind of experiment: NAFLD activity score (NAS) before and after administration, C57BL/6J DIO-NASH mouse model. The assay is classed as in vivo. The settings on record: compound in special diet for eight weeks, FIG. 12. As for the experimental part:
as §1

The test system is the same in assay [10]. As to the kind of experiment: Histological examination (HE) and triglyceride content of liver, C57BL/6J DIO-NASH mouse model. Format: in vivo. The following applies: Compd1 (H) group, in special diet for eight weeks after induction, vs. DIO-NASH, FIGS. 10 and 11. As to the method: as §1
For a histological examination, the prepared C57BL/6J mouse model was subjected to autopsy to fix an isolated liver tissue in 10% formalin and prepare a paraffin block, thereby obtaining a 2 μm-thick tissue section. […]

Each structure is given as a SMILES string.

As to `CCc1cnc(N2CCC(CCCOc3cc(F)c(-c4noc(C(C)C)n4)c(F)c3)CC2)nc1` [compound 1, 3-(4-(3-(1-(5-ethylpyrimidin-2-yl)piperidin-4-yl)propoxy)-2,6-difluorophenyl)-5-isopropyl-1,2,4-oxadiazole], in assay [1], the “concentration of ALT in blood” value is given as “significantly inhibited increase” and the “concentration of AST in blood” value is on record as “significantly inhibited increase”. In addition, in assay [2], the “cross-linking formation in fibers of the liver tissues” value was “remarkable decrease” and the “type I collagen in liver tissues” value is reported as “significant decrease”. Further, the “IL-1β secretion caused by activation of macrophages” value in assay [3] is “decreased in a concentration-dependent manner”. Besides, the “IL-1β secretion caused by activation of macrophages” value in the assay with human monocytes (THP-1) was “decreased in a concentration-dependent manner”. In [4], the “increase in expression of fibrosis-related genes (Tgfb1, Col1a, Timp1, Timp2, Acta2) in liver tissues” value is “significantly inhibited” and the “increase in expression of inflammation-related genes (Ccl2, Lgals3, Tnfa) in liver tissues” value is on record as “significantly inhibited”. In addition, in assay [5], the “ALT level in blood” value is “significant inhibition of increase” and the “AST level in blood” value is reported as “significant inhibition of increase”. In addition, in assay [6] (FIGS. 1 and 2), the “infiltration of inflammatory cells in liver tissues” value was “significantly inhibited”. For the same compound, in [6] (FIGS. 2 and 3), the “fibrosis of liver tissues” value is on record as “significantly inhibited”. In assay [7], the “expression of fibrosis markers in liver tissues” value is “remarkable decrease”, the “expression of macrophage markers in liver tissues” value is recorded as “remarkable decrease” and the “expression of monocyte attractants in liver tissues” value is listed as “remarkable decrease”. In assay [8], the “protein level of Ccl2 (=Mcp1) in liver tissues” value is given as “significantly inhibited” and the “protein level of Timp1 in liver tissues” value is “significantly inhibited”. In assay [9] (C57BL/6J DIO-NASH, disease worsened in 50% of the DIO-NASH group), the “worsening of disease by NAFLD activity score (NAS), before vs. after administration” value was “no individual was deteriorated”. Also, the “share of group in which the disease was ameliorated by NAFLD activity score (NAS)” value in assay [9] (C57BL/6J DIO-NASH_Compd1 group) is recorded as “about 50%”. Moreover, in assay [10], the “fat deposits in liver tissues” value is listed as “significant decrease” and the “infiltration of inflammatory cells in liver tissues” value is recorded as “significant decrease”.

Source of the values: patent US12115159B2, “Pharmaceutical composition for preventing or treating nonalcoholic fatty liver disease, containing GPR119 ligand as active ingredient” (DONG-A ST CO., LTD., priority 2018, dated 2024).
